In the NIST ThermoML archive (doi:10.1016/j.jct.2019.02.010):
Numbers after ± are expanded uncertainties.

Columns and labels:
[1] = 101.33 kPa; for mass density: Vibrating tube method; for viscosity: Falling or rolling sphere viscometry
[2] = xn = mol fraction of the nth substance listed; conditions: for viscosity / mass density: 101.3 kPa, Liquid; for viscosity: Falling or rolling sphere viscometry; for mass density: Vibrating tube method; for surface tension liquid-gas: 298.15 K, Ring tensiometer

## CC(=O)CCC(=O)O [4-oxopentanoic acid]
[1]; 293.15 K, Metastable liquid
  mass density: 1140.1 ± 8.1 kg/m3
[1]; 303.15 K, Metastable liquid
  mass density: 1131.6 ± 8.1 kg/m3
[1]; 313.15 K, Metastable liquid
  mass density: 1123 ± 8.1 kg/m3
[1]; 323.15 K, Metastable liquid
  mass density: 1114.5 ± 8.1 kg/m3
[1]; 333.15 K, Metastable liquid
  mass density: 1105.9 ± 8.1 kg/m3
[1]; 343.15 K, Metastable liquid
  mass density: 1097.4 ± 8.1 kg/m3

## CC(=O)CCC(=O)O [4-oxopentanoic acid] + C[N+](C)(C)CCO.[Cl-]
[2]; 293.15 K, x2 = 0.333
  viscosity: 362.08 ± 49 mPa·s
  mass density: 1141.9 ± 8.1 kg/m3
[2]; x2 = 0.333
  surface tension liquid-gas: 39.95 ± 2.1 mN/m
[2]; 303.15 K, x2 = 0.333
  viscosity: 183.72 ± 23 mPa·s
  mass density: 1135.2 ± 8.1 kg/m3
[2]; 313.15 K, x2 = 0.333
  viscosity: 103.46 ± 13 mPa·s
  mass density: 1128.5 ± 8.1 kg/m3
[2]; 323.15 K, x2 = 0.333
  viscosity: 62.8 ± 7.6 mPa·s
  mass density: 1121.9 ± 8.1 kg/m3
[2]; 333.15 K, x2 = 0.333
  viscosity: 39.59 ± 4.8 mPa·s
  mass density: 1115.3 ± 8.1 kg/m3

## CCCCO [butan-1-ol]
[1]; 293.15 K, Liquid
  viscosity: 2.95 ± 0.35 mPa·s
  mass density: 809.5 ± 8 kg/m3
[1]; 303.15 K, Liquid
  viscosity: 2.28 ± 0.27 mPa·s
  mass density: 801.9 ± 8 kg/m3
[1]; 313.15 K, Liquid
  viscosity: 1.79 ± 0.22 mPa·s
  mass density: 794.1 ± 8 kg/m3
[1]; 323.15 K, Liquid
  viscosity: 1.42 ± 0.17 mPa·s
  mass density: 786.2 ± 8 kg/m3
[1]; 333.15 K, Liquid
  viscosity: 1.15 ± 0.14 mPa·s
  mass density: 778.1 ± 8 kg/m3

## C[N+](C)(C)CCO.[Cl-] [choline chloride] + OCCO
[2]; 293.15 K, x1 = 0.334
  viscosity: 58.81 ± 7.1 mPa·s
  mass density: 1119.5 ± 8.1 kg/m3
[2]; x1 = 0.334
  surface tension liquid-gas: 45.66 ± 2.1 mN/m
[2]; 303.15 K, x1 = 0.334
  viscosity: 38.9 ± 4.7 mPa·s
  mass density: 1113.9 ± 8.1 kg/m3
[2]; 313.15 K, x1 = 0.334
  viscosity: 27.04 ± 3.2 mPa·s
  mass density: 1108.1 ± 8.1 kg/m3
[2]; 323.15 K, x1 = 0.334
  viscosity: 19.74 ± 2.4 mPa·s
  mass density: 1102.5 ± 8.1 kg/m3
[2]; 333.15 K, x1 = 0.334
  viscosity: 14.69 ± 1.8 mPa·s
  mass density: 1096.9 ± 8.1 kg/m3

## C[N+](C)(C)CCO.[Cl-] [choline chloride] + Oc1ccccc1
[2]; 293.15 K, x1 = 0.333
  viscosity: 129.98 ± 16 mPa·s
  mass density: 1099.4 ± 8.1 kg/m3
[2]; x1 = 0.333
  surface tension liquid-gas: 35.46 ± 2.1 mN/m
[2]; 303.15 K, x1 = 0.333
  viscosity: 74 ± 8.9 mPa·s
  mass density: 1093.4 ± 8.1 kg/m3
[2]; 313.15 K, x1 = 0.333
  viscosity: 44.33 ± 5.3 mPa·s
  mass density: 1087.4 ± 8.1 kg/m3
[2]; 323.15 K, x1 = 0.333
  viscosity: 30.23 ± 3.6 mPa·s
  mass density: 1081.5 ± 8.1 kg/m3
[2]; 333.15 K, x1 = 0.333
  viscosity: 21.5 ± 2.6 mPa·s
  mass density: 1075.6 ± 8.1 kg/m3
